Results published in PubChem BioAssay AID248 (DTP/NCI, 2004).
Values joined by “and” are separate entries in the source; they are usually repeats but may differ in a detail not shown here. Equal entries are not always repeated. Toxic doses and inconclusive results are not listed.

System: L1210 leukemia ip in BDF1 mice, survival T/C
Experiment: NCI In Vivo Anticancer Drug Screen. Data for tumor model L1210 Leukemia (intraperitoneal) in B6D2F1 (BDF1) mice
Details: endpoint: mean survival time, higher = longer survival
Procedure, shortened: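 Each compound was tested against a transplantable tumor grown in mice. The endpoint was survival, with treated animals benchmarked against vehicle controls as a simple ratio.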

[1] = dose: 50.0 mg/kg/injection, schedule: Q01DX009 (ip), vehicle: saline with Tween-80
[2] = dose: 100.0 mg/kg/injection, schedule: Q01DX009 (ip), vehicle: saline with Tween-80
[3] = dose: 100.0 mg/kg/injection, schedule: Q04DX003 (ip), vehicle: saline with Tween-80
[4] = dose: 200.0 mg/kg/injection, schedule: Q01DX009 (ip), vehicle: saline with Tween-80
[5] = dose: 200.0 mg/kg/injection, schedule: Q04DX003 (ip), vehicle: saline with Tween-80
[6] = dose: 100.0 mg/kg/injection, schedule: Q01DX001 (ip), vehicle: Klucel (hydroxypropylcellulose) (HPC)
[7] = dose: 200.0 mg/kg/injection, schedule: Q01DX001 (ip), vehicle: Klucel (hydroxypropylcellulose) (HPC)
[8] = dose: 400.0 mg/kg/injection, schedule: Q01DX009 (ip), vehicle: saline with Tween-80
[9] = dose: 400.0 mg/kg/injection, schedule: Q04DX003 (ip), vehicle: saline with Tween-80
[10] = dose: 100.0 mg/kg/injection, schedule: Q01DX009 (ip), vehicle: saline
[11] = dose: 100.0 mg/kg/injection, schedule: Q04DX003 (ip), vehicle: saline
[12] = dose: 200.0 mg/kg/injection, schedule: Q01DX009 (ip), vehicle: saline
[13] = dose: 200.0 mg/kg/injection, schedule: Q04DX003 (ip), vehicle: saline

FC(F)(F)c1nc2nc(Br)c(Br)nc2[nH]1
T/C [1]: 108 % of control | T/C [2]: 89 % of control | T/C [3]: 109 % of control and 110 % of control and 111 % of control | T/C [4]: 98 % of control | T/C [5]: 102 % of control and 115 % of control

O=C(Nc1ccc(C2=NCCN2)cc1)c1cncc(C(=O)Nc2ccc(C3=NCCN3)cc2)c1
T/C (dose: 1.0 mg/kg/injection, schedule: Q01DX Z (ip), vehicle: saline): 97 % of control | T/C (dose: 2.0 mg/kg/injection, schedule: Q01DX Z (ip), vehicle: saline): 111 % of control | T/C (dose: 15.0 mg/kg/injection, schedule: Q01DX Z (ip), vehicle: carboxymethylcellulose (CMC)): 223 % of control | T/C (dose: 16.0 mg/kg/injection, schedule: Q01DX Z (ip), vehicle: saline): 214 % of control | T/C (dose: 30.0 mg/kg/injection, schedule: Q01DX Z (ip), vehicle: carboxymethylcellulose (CMC)): 158 % of control | T/C (dose: 30.0 mg/kg/injection, schedule: Q01DX Z (oral), vehicle: saline): 101 % of control | T/C (dose: 60.0 mg/kg/injection, schedule: Q01DX Z (ip), vehicle: carboxymethylcellulose (CMC)): 120 % of control | T/C (dose: 60.0 mg/kg/injection, schedule: Q01DX Z (oral), vehicle: saline): 104 % of control | T/C (dose: 120.0 mg/kg/injection, schedule: Q01DX Z (oral), vehicle: saline): 98 % of control | T/C (dose: 240.0 mg/kg/injection, schedule: Q01DX Z (oral), vehicle: saline): 106 % of control | T/C (dose: 480.0 mg/kg/injection, schedule: Q01DX Z (oral), vehicle: saline): 101 % of control | T/C (dose: 960.0 mg/kg/injection, schedule: Q01DX Z (oral), vehicle: saline): 101 % of control

CC1(O)c2ccccc2-c2c1n([O-])c1ccccc1[n+]2=O (centres undefined)
T/C (dose: 100.0 mg/kg/injection, schedule: Q04DX003 (ip), vehicle: saline sonified): 111 % of control | T/C (dose: 200.0 mg/kg/injection, schedule: Q04DX003 (ip), vehicle: saline sonified): 100 % of control | T/C (dose: 400.0 mg/kg/injection, schedule: Q04DX003 (ip), vehicle: saline sonified): 89 % of control

CC(=O)OC1C(=O)C(O)C(C)OC1O[C@@H]1C[C@@]2(C)[C@@H]3CC=C4[C@@H](C[C@H](O)C(=O)C4(C)C)[C@]3(C)C(=O)C[C@]2(C)[C@H]1[C@@](C)(O)C(=O)/C=C/C(C)(C)O (some centres undefined)
T/C (dose: 0.33 mg/kg/injection, schedule: Q01DX009 (ip), vehicle: saline): 113 % of control | T/C (dose: 0.6 mg/kg/injection, schedule: Q01DX009 (ip), vehicle: saline): 106 % of control | T/C (dose: 0.67 mg/kg/injection, schedule: Q01DX009 (ip), vehicle: saline): 112 % of control | T/C (dose: 1.0 mg/kg/injection, schedule: Q01DX009 (ip), vehicle: saline): 108 % of control | T/C (dose: 1.25 mg/kg/injection, schedule: Q01DX009 (ip), vehicle: saline): 120 % of control | T/C (dose: 1.5 mg/kg/injection, schedule: Q01DX009 (ip), vehicle: saline): 101 % of control | T/C (dose: 2.5 mg/kg/injection, schedule: Q01DX009 (ip), vehicle: saline): 97 % of control

CC(C)(C)N1C(C(=O)c2ccccc2)C1C(=O)c1ccccc1 (centres undefined)
T/C [6]: 97 % of control | T/C [7]: 95 % of control | T/C (dose: 400.0 mg/kg/injection, schedule: Q01DX001 (ip), vehicle: Klucel (hydroxypropylcellulose) (HPC)): 89 % of control

O=[N+]([O-])c1ccccc1SNc1ccccc1
T/C (dose: 100.0 mg/kg/injection, schedule: Q01DX009 (ip), vehicle: Klucel (hydroxypropylcellulose) (HPC)): 102 % of control | T/C (dose: 100.0 mg/kg/injection, schedule: Q04DX003 (ip), vehicle: Klucel (hydroxypropylcellulose) (HPC)): 96 % of control | T/C (dose: 200.0 mg/kg/injection, schedule: Q01DX009 (ip), vehicle: Klucel (hydroxypropylcellulose) (HPC)): 105 % of control | T/C (dose: 400.0 mg/kg/injection, schedule: Q01DX009 (ip), vehicle: Klucel (hydroxypropylcellulose) (HPC)): 107 % of control | T/C (dose: 400.0 mg/kg/injection, schedule: Q04DX003 (ip), vehicle: Klucel (hydroxypropylcellulose) (HPC)): 103 % of control

CC(C)CCCCc1c[nH]c(=O)[nH]c1=O
T/C [2]: 107 % of control | T/C [3]: 94 % of control | T/C [4]: 104 % of control | T/C [5]: 97 % of control | T/C [8]: 101 % of control | T/C [9]: 92 % of control

N=c1cc(-c2ccc(Cl)cc2)ss1
T/C (dose: 50.0 mg/kg/injection, schedule: Q01DX009 (ip), vehicle: saline): 91 % of control | T/C [10]: 97 % of control | T/C [11]: 100 % of control | T/C [12]: 91 % of control | T/C [13]: 92 % of control

CCCC(C(=O)O)C(CCC)C(=O)O (centres undefined)
T/C [2]: 92 % of control | T/C [4]: 96 % of control

Nc1nc2c(ncn2-c2cccc(NS(=O)(=O)c3cccc(S(=O)(=O)F)c3)c2)c(=O)[nH]1
T/C (dose: 25.0 mg/kg/injection, schedule: Q01DX001 (ip), vehicle: Klucel (hydroxypropylcellulose) (HPC)): 96 % of control | T/C (dose: 50.0 mg/kg/injection, schedule: Q01DX001 (ip), vehicle: Klucel (hydroxypropylcellulose) (HPC)): 98 % of control | T/C [6]: 94 % of control

Cc1cccn1C(C)c1ccccc1 (centres undefined)
T/C [3]: 97 % of control | T/C [5]: 94 % of control | T/C [9]: 97 % of control

[C-]#[N+]C(C)(CC)c1ccccc1 (centres undefined)
T/C (dose: 6.25 mg/kg/injection, schedule: Q01DX009 (ip), vehicle: saline with Tween-80): 93 % of control | T/C (dose: 6.25 mg/kg/injection, schedule: Q04DX003 (ip), vehicle: acetone): 96 % of control | T/C (dose: 12.5 mg/kg/injection, schedule: Q01DX001 (ip), vehicle: acetone): 91 % of control | T/C (dose: 12.5 mg/kg/injection, schedule: Q01DX009 (ip), vehicle: saline with Tween-80): 95 % of control | T/C (dose: 12.5 mg/kg/injection, schedule: Q04DX003 (ip), vehicle: acetone): 108 % of control | T/C (dose: 25.0 mg/kg/injection, schedule: Q01DX001 (ip), vehicle: acetone): 96 % of control | T/C (dose: 25.0 mg/kg/injection, schedule: Q01DX009 (ip), vehicle: saline with Tween-80): 95 % of control | T/C (dose: 25.0 mg/kg/injection, schedule: Q04DX003 (ip), vehicle: acetone): 100 % of control

CC(C)=CCC/C(C)=C/CNc1ncnc2nc[nH]c12
T/C [1]: 103 % of control | T/C [2]: 100 % of control | T/C (dose: 100.0 mg/kg/injection, schedule: Q04DX003 (ip), vehicle: acetone): 94 % of control | T/C [3]: 94 % of control | T/C [4]: 100 % of control | T/C (dose: 200.0 mg/kg/injection, schedule: Q04DX003 (ip), vehicle: acetone): 101 % of control | T/C [5]: 95 % of control | T/C [8]: 105 % of control | T/C [9]: 90 % of control

CCCCCCCCCCC(=O)O
T/C [6]: 105 % of control | T/C [7]: 105 % of control | T/C (dose: 300.0 mg/kg/injection, schedule: Q01DX001 (ip), vehicle: Klucel (hydroxypropylcellulose) (HPC)): 101 % of control

COc1ccc(N=C2OC(=O)c3ccccc32)cc1
T/C [10]: 91 % of control | T/C [11]: 94 % of control | T/C [12]: 100 % of control | T/C [13]: 103 % of control | T/C (dose: 400.0 mg/kg/injection, schedule: Q01DX009 (ip), vehicle: saline): 89 % of control | T/C (dose: 400.0 mg/kg/injection, schedule: Q04DX003 (ip), vehicle: saline): 92 % of control

CCN(CC)CC(O)c1ccnc2c([N+](=O)[O-])cc(OC)cc12 (centres undefined)
T/C (dose: 75.0 mg/kg/injection, schedule: Q01DX001 (ip), vehicle: acetone): 106 % of control | T/C (dose: 150.0 mg/kg/injection, schedule: Q01DX001 (ip), vehicle: acetone): 102 % of control | T/C (dose: 300.0 mg/kg/injection, schedule: Q01DX001 (ip), vehicle: acetone): 91 % of control

Cc1ccc(S)cc1
T/C [10]: 87 % of control

COC(=O)c1cc(C(C)=O)ccc1OC(=O)c1ccccc1
T/C [2]: 98 % of control | T/C [3]: 88 % of control | T/C [4]: 94 % of control | T/C [5]: 90 % of control | T/C [8]: 100 % of control | T/C [9]: 108 % of control

NC(=O)c1nc(-c2ccccc2)c(-c2ccccc2)[nH]c1=O
T/C [2]: 104 % of control | T/C [4]: 95 % of control | T/C [8]: 96 % of control

CC(=O)OC1C=C2CCC3C(CCC4(C)C(OC(C)=O)CCC34)C2(C)CC1 (centres undefined)
T/C (dose: 12.5 mg/kg/injection, schedule: Q01DX009 (ip), vehicle: Klucel (hydroxypropylcellulose) (HPC)): 92 % of control | T/C (dose: 25.0 mg/kg/injection, schedule: Q01DX009 (ip), vehicle: Klucel (hydroxypropylcellulose) (HPC)): 92 % of control | T/C (dose: 50.0 mg/kg/injection, schedule: Q01DX009 (ip), vehicle: Klucel (hydroxypropylcellulose) (HPC)): 90 % of control | T/C (dose: 75.0 mg/kg/injection, schedule: Q01DX009 (ip), vehicle: Klucel (hydroxypropylcellulose) (HPC)): 101 % of control | T/C (dose: 115.0 mg/kg/injection, schedule: Q01DX009 (ip), vehicle: Klucel (hydroxypropylcellulose) (HPC)): 98 % of control | T/C (dose: 170.0 mg/kg/injection, schedule: Q01DX009 (ip), vehicle: Klucel (hydroxypropylcellulose) (HPC)): 95 % of control
